{"source": "patent US20220251052A1", "about": "“IMPROVED PROCESS FOR THE PREPARATION OF 2-(3,5-DICHLOROPHENYL)-1,3-BENZOXAZOLE-6-CARBOXYLIC ACID OR ITS PHARMACEUTICALLY ACCEPTABLE SALTS AND POLYMORPHS THEREOF” (MSN LABORATORIES PRIVATE LIMITED, R&D CENTER, priority 2019, published 2022)", "experiment": "Solid-state stability of the crystalline form under stress conditions", "format": "physicochemical", "settings": "60±5° C. for 24 hours; 10 tons of pressure; UV light at 254nm for 24 hours; 75±5% relative humidity for 24 hours", "description": "In third aspect of third embodiment, crystalline Form-R of Tafamidis of formula (I) is stable under stress conditions at 60±5° C. for 24 hours, 10 tons of pressure, under UV light at 254nm for 24 hours and higher humidity conditions of 75±5% relative humidity for 24 hours."}
{"smiles": "O=C(O)c1ccc2nc(-c3cc(Cl)cc(Cl)c3)oc2c1", "note": "[Form-R, 2-(3,5-dichlorophenyl)-1,3-benzoxazole-6-carboxylic acid]", "values": [{"measurement": "polymorphic stability under stress conditions (does not convert to any other polymorphic form)", "value": "stable"}]}
